Assays:
S. aureus strain SH1000 = test: Biofilm inhibition assay (96-well microtiter plate crystal violet binding); type: cell-based, Staphylococcus aureus
Experimental: (§1) Biofilm inhibition assay. Biofilms were cultured in 96-well polystyrene microtiter plates as previously described. Briefly, cells were diluted to 104 to […] CFU/ml in TSB supplemented with 0.1 vol of PAM extract, or 0.1 vol of water as a control. Aliquots of cells (200 μl each) were transferred to the wells of a microtiter plate, and the plate was incubated at 37° C. for 18 h. Biofilms were washed with water and stained for 1 min with 200 μl of Gram's crystal violet. Stained biofilms were rinsed with water and dried. The amount of crystal violet binding was quantitated by destaining the biofilms for 10 min with 200 μl of 33% acetic acid, and then measuring the absorbance of the crystal violet solution at 595 nm. All assays were performed 3-5 times with similarly significant decreases in absorbance values.
Expressing the K. kingae pam genes in E. coli. Plasmids pGEM-T, pMB10, pMB5 and pMB9 were transformed into E. coli strain JM109. Transformants were selected on agar supplemented with 50 μg/ml ampicillin. Lawns of transformants were grown on agar plates supplemented with 50 μg/ml ampicillin and 1 mM IPTG. Lawns were harvested and cell-free extracts were prepared by ultracentrifugation as described above. Extracts were sterilized by passage through a 0.22-μm filter, incubated at 100° C. for 15 min, and then tested for activity in the biofilm inhibition assay described above.

K. kingae = test: Biofilm inhibition assay (96-well microtiter plate); type: cell-based, Kingella kingae; settings: K. kingae PYKK181; crystal violet
Experimental: as §1

K. pneumoniae = test: as above; type: cell-based, Klebsiella pneumoniae; settings: K. pneumoniae 1840; crystal violet
Experimental: as §1

Measured: biofilm-inhibiting activity of purified PAM galactan

→3)-β-D-Galf-(1→6)-β-D-Galf-(1→ [PAM galactan]
exhibited biofilm-inhibiting activity: all assays above
